The text below walks through data of patent US20230124862A1, “BISMUTH THIOL COMPOUNDS AND COMPOSITIONS AND METHODS OF TREATING MICROBIAL CO-INFECTIONS” (Microbion Corporation, priority 2020, published 2023).

Converted amounts (≈) assume the structure as drawn. Read-outs that look alike come from different tables or passages of the source. Marks after values point to notes of the source that are not given here.

For series [1], the system named is M. avium. As to the kind of experiment: MIC testing of CF isolates. It counts as cell-based. The conditions noted are these: Mycobacterium avium.
For series [2], the system named is B. cenocepacia. In words: MIC testing of CF isolates. It counts as cell-based, Burkholderia cenocepacia. The conditions noted are these: strain AU197.
Series [3] concerns E. coli ATCC 25922. In words: MIC control strain. Conditions: QC organism, Example 13.
Series [4] can be described thus: in vivo. Details: species or system rat. The conditions noted are these: for half-life / concentration at 24 hours / Kp: in vivo. The source says: . Without being bound by any particular theory, it is believed BisEDT's low solubility provides slow dissolution and long exposure on lung surface fluids with limited systemic exposure via diffusion through lung epithelium. The lung appears to act as a depot for slow systemic exposure with about 10× lower systemic levels than seen in the lung. The terminal phase of the IV data appears to show slow elimination after initial tissue distribution (FIG. 36).
. The NOAEL was established through clinical observation during and after treatment, gross necropsy, lung lavage analysis, clinical chemistry, and hematology results. […].

Series [5] has as its system MucilAir fully differentiated human airway epithelium.
In series [6] the test system is Gram-negative organisms (P. aeruginosa, E. coli, A. baumannii, H. influenzae). The conditions noted are these: cited from earlier work.
Series [7] deals with MucilAir fully differentiated human airway epithelium. This is another data set of the same source.
Series [8] has as its system S. aureus ATCC 29213. Conditions: CLSI established QC range; cited from earlier work.
Series [9] is classed as in vivo, patients. The conditions noted are these: end of treatment (Week 2-3), test of cure (Week 4-5), end of study (Week 8-9).
Series [10] can be described thus: in vivo. Details: species or system beagle dogs. Conditions: dog; for half-life: two-dose inhalation. On the procedure: Once adequately conditioned to the restraint device and face-masks, the animals are individually exposed to the test article aerosols. Animals receive a single face-mask inhalation exposure in a ramp study design to test article aerosols for up to 60 min. Animal observations during and post exposure determine the tolerance of inhaled BisEDT aerosols.
Blood Collections and Bioanalytical Analysis: Blood are collected for pharmacokinetic (PK) analysis prior to exposure, then at 4 hr (±5 min) post exposure, and again on Day 1, Day 2, Day 7 (pre- and 4 hr (±5 min)-post exposure), Day 8, Day 9, Day 10, Day 11, Day 12, Day 13, and Day 14. A total of 0.25 mL is collected at each timepoint. No PK blood is collected from the vehicle control (Group 1) animals; only animals exposed to BisEDT have blood collected for PK analysis. Collected samples are flash frozen without processing for shipment to Medpace for bioanalytical analysis. Additional blood is collected from all animals in all groups for hematology (1 mL) and clinical chemistry (1 mL) at baseline, Day 7 (pre-exposure), and again at euthanasia. Blood (2-2 mL) is collected from all animals at necropsy for coagulation analysis (d-Dimer, fibrinogen, PT, and PTT).
Blood for pharmacokinetic analysis (0.25 mL) is collected into tubes containing K3EDTA as an anticoagulant.
The left lobe of the lung is used for histopathology and will be fixed in 10% NBF. […] Liver, spleen, kidney, brain, heart, and respiratory tract are collected and fixed for potential, future analysis.
A two-dose inhalation PK study in dogs was performed covering four doses from 50 μg/kg to 450 μg/kg lung deposited dose. […] The systemic half-life is approximately 4 days, and the lung tissue half-life is approximately 7 days.

The subject of series [11] is Burkholderia cepacia complex. It counts as cell-based, Burkholderia spp. Conditions: initial MIC testing.
Series [12] deals with P. aeruginosa. In words: Checkerboard FIC/FICI assay. It counts as cell-based, Pseudomonas aeruginosa. Conditions: during FIC testing.
Where [13] appears, read: rat, 24 hours after single inhalation dose.
Setting [14] is: rat, 4 days (96 hrs) after single dose.
The mark [15] stands for this setting: solid, 0.033 and 0.33 μg/cm^2, all time points.
Where [16] appears, read: Animals 4001 and 4004, Day 14 (7 days after last dose).

On to `CC(S)C(C)S.[Bi]` (centres unmarked) [BisBDT, bismuth-2,3-butanedithiol], for which the figures for the MIC in series [1] (strain AMT G193-13), in [1] (strain MAC101) and in [2] were greater than 16 µg/mL, 1 µg/mL and 4 µg/mL, respectively. In [3], the “MIC 24 hr” value was 0.5^a.

As for `C1C[S][Bi]([S]CC[S][Bi]2[S]CC[S]2)[S]1` [BisEDT, Bismuth-1,2-ethanedithiol], the half-life (as a rule, how long it takes for the measured level to halve) in series [4] (100 μg/kg, rat, after IV dosing, read-out: half-life of lung levels (converted)) is roughly 1 days; in [4] (inhaled or intranasal, 100 μg/kg, rat, after inhalation dosing, read-out: half-life in lung tissue (converted)), roughly 4 days; in series [4] (rat, longer-term single-dose and repeat-dose studies, read-out: half-life in lung tissue (converted)), 4 to 7 days; in series [10] (beagle, in vivo, inhaled or intranasal, read-out: lung tissue half-life (converted)) it was roughly 7 days; in series [10] (beagle, in vivo, inhaled or intranasal, read-out: systemic half-life (converted)), roughly 4 days. Besides, the concentration at 24 hours in series [4] (average rat, correlated from lung tissue level, read-out: concentration in lung epithelial lining fluid) was 150 to 175 µg/mL; in series [4] (rat, rats, doses near the NOAEL, 24 hours after dosing, read-out: lung tissue level (total wet lung tissue)), roughly 5000 ng/g. Moreover, in series [4] (rat), the “lung surface fluid concentrations higher than total lung tissue concentrations” value is recorded as “approximately 30 fold”. The tolerability entry in series [4] (rat, 100 μg/kg inhalation and IV and 250 μg/kg oral) was “tolerated”. For the same molecule, the results for the “equivalent concentration in lung fluid” value in series [4] (setting [13]) and in series [4] (setting [14]) were 123 µg/mL and 78 µg/mL, respectively. In addition, the lung tissue concentration in [4] (setting [13]) is reported as 4,093 ng/g; in series [4] (setting [14]), 2,600 ng/g. Also, in [4] (rat, IV), the “lung levels after IV dosing vs inhalation group” value is given as less than 5%. In addition, the Kp in series [4] (rat, rat, repeat dose TK, read-out: lung tissue exposure (AUC) greater than blood exposure) was 26; in series [4] (rat, rat, read-out: lung fluid exposure (AUC) greater than systemic exposure), greater than 700. Also, the TEER entry in series [5] (BisEDT in solution 0.001-30 μM, all time points) is on record as “didn't show significant effect”; in series [5] (solid, 1 μg/cm^2, 8, 24 and 48H), “Loss of tissue integrity”; in [5] (solid, 1 μg/cm^2, 1 hour) it was “no significant effect”; in series [5] (setting [15]) it was “No significant effect”; in series [5] (solid, all tested doses, 1 hour exposure), “no significant effect”. The “CLSI acceptable MIC QC range” value is “(0.015-0.06) μg/mL” in series [6] (H. Influenzae ATCC 49247) and 0.5 to 4 µg/mL in [6] (P. aeruginosa ATCC 27853). Also, the LDH release result in series [7] (BisEDT in solution 0.001-30 μM, 1, 8, 24, 48 h) was “not altered”; in series [7] (solid, 1 μg/cm^2, 1 hour) it was “No significant effect”; in [7] (setting [15]), “No significant effect”. The “LDH release (cytotoxicity)” value in series [7] (solid, 1 μg/cm^2, 8, 24 and 48 h) is “time- and dose-dependent cytotoxicity”. Further, the “QC range of MIC” value in series [8] was “(0.12-1) μg/mL”. Besides, the “proportion of subjects with >50% reduction in wound surface area from baseline vs placebo” value in series [9] is “A larger proportion”. For the same molecule, the Tmax (in general, the time from dosing to the highest level) in series [10] (beagle, in vivo, inhaled or intranasal, whole blood, after both doses) is roughly 24 h. The average blood level result in series [10] (setting [16]) is listed as “less than 20 ng/mL”. For the same molecule, the lung tissue level entry in series [10] (setting [16]) is recorded as “over 7,000 ng/g”.

Take `C[C@@H](O)[C@H]1C(=O)N2C(C(=O)O)=C(S[C@@H]3CN[C@H](C(=O)N(C)C)C3)[C@H](C)[C@H]12` [MEM]: the MIC (as a rule, the smallest concentration in the dilution series that meets the test's criterion for growth inhibition) in series [11] (B. cenocepacia isolate 0548 (CIP-R)) came out at 4 µg/mL (≈ 10.4 µM); in [11] (B. cenocepacia isolate 0813 (CPI-I)), 2 µg/mL (≈ 5.22 µM); in series [11] (B. cenocepacia isolate 1631), 4 µg/mL (≈ 10.4 µM); in series [11] (B. cenocepacia isolate 1783), 4 µg/mL (≈ 10.4 µM); in [11] (B. cenocepacia isolate 8555), 4 µg/mL (≈ 10.4 µM); in series [11] (B. cepacia isolate 0546), 4 µg/mL (≈ 10.4 µM). The MIC was 2 µg/mL (≈ 5.22 µM) in [11] (B. cepacia isolate 0547); 4 µg/mL (≈ 10.4 µM) in [11] (B. cepacia isolate 1793); 4 µg/mL (≈ 10.4 µM) in [11] (B. cepacia isolate 1794); 4 µg/mL (≈ 10.4 µM) in [11] (B. cepacia isolate 9040); 2 µg/mL (≈ 5.22 µM) in series [11] (B. multivorans isolate 1580 (CIP-R)); 4 µg/mL (≈ 10.4 µM) in [11] (B. multivorans isolate 1791). The MIC in series [11] (B. multivorans isolate 1795 (MEM-I, CIP-R)) came to 8 µg/mL (≈ 20.9 µM); in series [11] (B. multivorans isolate 5665 (CIP-I)) it was 2 µg/mL (≈ 5.22 µM); in series [11] (B. multivorans isolate 8952 (CIP-I)), 2 µg/mL (≈ 5.22 µM); in series [12] (isolate 103 (ATCC 25922), each agent tested alone for QC, one replicate), 1 µg/mL; in series [12] (isolate 6322), 16 µg/mL; in [12] (isolate 6977), 8 µg/mL. Further, the results for the MIC in [12] (isolate 7745) and in series [12] (isolate 8798) were 16 µg/mL and 32 µg/mL, respectively.
